{"source": "ChEMBL document CHEMBL5321275", "about": "“Discovery, Optimization, and Evaluation of Novel N-(Benzimidazol-5-yl)-1,3,4-thiadiazol-2-amine Analogues as Potent STAT3 Inhibitors for Cancer Treatment” (J Med Chem, 2023)", "key": {"DU-145 [1]": {"tested_on": "DU-145", "experiment": "Induction of apoptosis in human DU-145 cells assessed as early apoptotic cells at 1 uM measured after 48 hrs by annexin V-FITC and PI staining based flow cytometry analysis (reference value: 2.5%)", "type": "functional"}, "[2]": {"experiment": "Inhibition of IL-6/JAK/STAT3 signalling pathway in HEK-Blue IL-6 cells incubated for 16 hrs by QUANTI-blue assay", "type": "cell-based", "details": "Homo sapiens, HEK-Blue IL-6, 16 h"}, "MDA-MB-231 [3]": {"tested_on": "MDA-MB-231", "experiment": "Antiproliferative activity against human MDA-MB-231 cells assessed as inhibition of cell growth at 10 uM measured after 96 hrs by MTT assay relative to control", "type": "functional"}, "MDA-MB-231 [4]": {"tested_on": "MDA-MB-231", "experiment": "Antiproliferative activity against human MDA-MB-231 cells assessed as inhibition of cell growth measured after 96 hrs by MTT assay", "type": "functional, cell-based", "details": "MDA-MB-231, 96 h"}, "PANC-1": {"tested_on": "PANC-1", "experiment": "Antiproliferative activity against human PANC-1 cells assessed as inhibition of cell growth measured after 96 hrs by MTT assay", "type": "functional, cell-based", "details": "PANC-1, 96 h"}, "HCT-116": {"tested_on": "HCT-116", "experiment": "Antiproliferative activity against human HCT-116 cells assessed as inhibition of cell growth measured after 96 hrs by MTT assay", "type": "functional, cell-based", "details": "HCT-116, 96 h"}, "[5]": {"experiment": "Metabolic stability in mouse liver microsomes assessed as intrinsic clearance in presence of NADPH/UDPGA", "type": "ADME, Microsome", "details": "read-out: CLH"}, "[6]": {"molecular_target": "Tyrosine-protein kinase JAK2 (Homo sapiens) (UniProt O60674)", "sequence (O60674 whole entry)": "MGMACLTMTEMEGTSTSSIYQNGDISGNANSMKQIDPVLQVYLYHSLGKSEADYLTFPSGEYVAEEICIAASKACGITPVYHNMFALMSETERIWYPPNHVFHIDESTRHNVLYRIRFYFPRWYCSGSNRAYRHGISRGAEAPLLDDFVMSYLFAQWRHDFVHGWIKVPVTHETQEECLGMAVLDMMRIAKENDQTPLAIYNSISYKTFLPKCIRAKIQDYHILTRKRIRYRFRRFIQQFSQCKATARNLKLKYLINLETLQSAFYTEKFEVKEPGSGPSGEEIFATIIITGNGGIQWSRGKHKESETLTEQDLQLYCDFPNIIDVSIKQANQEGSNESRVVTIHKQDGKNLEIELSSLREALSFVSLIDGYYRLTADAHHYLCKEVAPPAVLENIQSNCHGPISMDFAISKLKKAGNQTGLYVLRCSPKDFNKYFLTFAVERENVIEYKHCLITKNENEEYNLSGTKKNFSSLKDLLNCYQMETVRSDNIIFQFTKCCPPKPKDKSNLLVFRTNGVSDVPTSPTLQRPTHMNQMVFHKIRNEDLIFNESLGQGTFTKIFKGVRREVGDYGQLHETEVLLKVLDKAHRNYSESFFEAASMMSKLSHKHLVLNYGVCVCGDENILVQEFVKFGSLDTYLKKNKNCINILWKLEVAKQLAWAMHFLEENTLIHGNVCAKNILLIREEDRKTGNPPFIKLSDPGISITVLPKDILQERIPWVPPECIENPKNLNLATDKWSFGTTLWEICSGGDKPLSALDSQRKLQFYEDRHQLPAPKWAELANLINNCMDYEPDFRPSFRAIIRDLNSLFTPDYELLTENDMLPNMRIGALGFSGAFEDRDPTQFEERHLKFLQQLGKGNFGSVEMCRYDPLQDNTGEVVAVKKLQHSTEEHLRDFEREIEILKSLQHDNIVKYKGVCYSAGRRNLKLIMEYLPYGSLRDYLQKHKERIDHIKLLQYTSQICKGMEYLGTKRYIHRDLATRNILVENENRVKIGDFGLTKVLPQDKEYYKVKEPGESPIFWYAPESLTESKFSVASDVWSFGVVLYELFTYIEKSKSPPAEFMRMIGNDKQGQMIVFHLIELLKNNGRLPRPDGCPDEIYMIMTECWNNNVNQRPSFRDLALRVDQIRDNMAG", "experiment": "Inhibition of JAK2 phosphorylation in human DU-145 cells at 10 uM measured after 24 hrs by Western blot analysis", "type": "cell-based"}, "[7]": {"molecular_target": "T1, Signal transducer and activator of transcription 5A (Homo sapiens) (UniProt P42229)", "T1 sequence (whole entry)": "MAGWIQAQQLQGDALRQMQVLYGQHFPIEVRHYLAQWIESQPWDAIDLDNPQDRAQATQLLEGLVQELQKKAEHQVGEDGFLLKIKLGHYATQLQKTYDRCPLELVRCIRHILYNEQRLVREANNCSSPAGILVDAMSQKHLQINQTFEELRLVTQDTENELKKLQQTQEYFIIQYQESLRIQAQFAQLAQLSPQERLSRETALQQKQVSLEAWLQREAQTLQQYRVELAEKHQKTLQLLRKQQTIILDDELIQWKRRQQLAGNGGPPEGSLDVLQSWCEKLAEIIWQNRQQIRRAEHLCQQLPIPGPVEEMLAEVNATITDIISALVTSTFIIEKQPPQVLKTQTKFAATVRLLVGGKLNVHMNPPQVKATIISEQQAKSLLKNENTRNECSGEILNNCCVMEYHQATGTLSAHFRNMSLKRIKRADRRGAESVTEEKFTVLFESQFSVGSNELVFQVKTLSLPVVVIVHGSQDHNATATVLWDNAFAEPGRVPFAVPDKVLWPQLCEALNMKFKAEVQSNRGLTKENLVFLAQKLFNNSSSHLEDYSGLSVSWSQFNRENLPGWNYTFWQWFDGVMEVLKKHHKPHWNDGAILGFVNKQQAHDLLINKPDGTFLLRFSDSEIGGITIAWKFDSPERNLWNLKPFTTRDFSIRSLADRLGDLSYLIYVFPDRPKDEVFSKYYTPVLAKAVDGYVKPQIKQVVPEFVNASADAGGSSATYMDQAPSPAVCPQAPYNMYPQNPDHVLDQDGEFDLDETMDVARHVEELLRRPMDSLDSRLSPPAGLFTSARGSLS", "experiment": "Inhibition of STAT5 phosphorylation in human DU-145 cells at 10 uM measured after 24 hrs by Western blot analysis", "type": "cell-based"}, "[8]": {"molecular_target": "Signal transducer and activator of transcription 3 (Homo sapiens, UniProt P40763)", "sequence (P40763 whole entry)": "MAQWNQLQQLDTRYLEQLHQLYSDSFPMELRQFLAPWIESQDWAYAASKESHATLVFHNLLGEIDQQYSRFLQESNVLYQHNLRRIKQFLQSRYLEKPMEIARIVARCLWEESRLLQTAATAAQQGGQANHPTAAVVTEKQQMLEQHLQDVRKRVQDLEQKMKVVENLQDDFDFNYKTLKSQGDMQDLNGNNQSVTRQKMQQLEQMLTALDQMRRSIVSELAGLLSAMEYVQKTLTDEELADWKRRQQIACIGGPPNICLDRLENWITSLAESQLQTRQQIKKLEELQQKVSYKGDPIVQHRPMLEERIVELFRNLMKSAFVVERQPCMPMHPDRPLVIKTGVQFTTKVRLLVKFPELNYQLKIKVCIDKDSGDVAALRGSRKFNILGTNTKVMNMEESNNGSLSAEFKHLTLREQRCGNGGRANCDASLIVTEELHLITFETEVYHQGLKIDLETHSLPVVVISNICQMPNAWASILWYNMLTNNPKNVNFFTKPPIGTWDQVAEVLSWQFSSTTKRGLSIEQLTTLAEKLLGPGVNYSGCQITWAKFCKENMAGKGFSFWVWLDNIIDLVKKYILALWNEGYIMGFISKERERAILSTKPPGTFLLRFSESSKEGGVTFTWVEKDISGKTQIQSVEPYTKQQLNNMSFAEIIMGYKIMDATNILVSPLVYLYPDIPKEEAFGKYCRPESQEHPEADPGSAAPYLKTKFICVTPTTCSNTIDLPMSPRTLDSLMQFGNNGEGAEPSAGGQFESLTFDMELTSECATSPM", "experiment": "Inhibition of STAT3 nuclear translocation in human DU-145 cells at 5 uM measured after 24 hrs by immunofluorescence assay", "type": "cell-based"}, "DU-145 [9]": {"tested_on": "DU-145", "experiment": "Induction of apoptosis in human DU-145 cells assessed as early apoptotic cells at 10 uM measured after 48 hrs by annexin V-FITC and PI staining based flow cytometry analysis (reference value: 2.5%)", "type": "functional"}, "MDA-MB-231 [10]": {"tested_on": "MDA-MB-231", "experiment": "Induction of apoptosis in human MDA-MB-231 cells assessed as late apoptotic cells at 10 uM measured after 48 hrs by annexin V-FITC and PI staining based flow cytometry analysis (reference value: 3.1%)", "type": "functional"}, "MDA-MB-231 [11]": {"tested_on": "MDA-MB-231", "experiment": "Induction of apoptosis in human MDA-MB-231 cells assessed as cell apoptotic percentage at 10 uM measured after 48 hrs by annexin V-FITC and PI staining based flow cytometry analysis relative to control", "type": "functional"}, "MDA-MB-231 [12]": {"tested_on": "MDA-MB-231", "experiment": "Induction of apoptosis in human MDA-MB-231 cells measured after 48 hrs by annexin V-FITC and PI staining based flow cytometry analysis", "type": "functional, cell-based", "details": "dose <= 10.0 µM"}, "MDA-MB-231 [13]": {"tested_on": "MDA-MB-231", "experiment": "Induction of apoptosis in human MDA-MB-231 cells assessed as induction of PARP cleavage at upto 10 uM measured after 48 hrs by […]", "type": "functional, cell-based"}, "DU-145 [14]": {"tested_on": "DU-145", "experiment": "Antitumor activity against human DU-145 cells xenografted in Balb/c nude mouse model assessed as tumor growth inhibition at 50 mg/kg, ip administered once daily for 16 days by vernier caliper method relative to control", "type": "functional", "details": "DU-145, 384 h, time 16 day, read-out: TGI"}, "[15]": {"experiment": "Toxicity in Balb/c mouse assessed as drug tolerance at 50 mg/kg, ip administered once daily for 16 days", "type": "organism-based", "details": "in vivo, 384 h, time 16 day"}, "[16]": {"experiment": "Toxicity in Balb/c mouse assessed as effect on body weight loss at 50 mg/kg, ip administered once daily for 16 days", "type": "organism-based", "details": "in vivo, 384 h, time 16 day"}, "[17]": {"experiment": "Toxicity in Balb/c mouse assessed as effect on liver at 50 mg/kg by hematoxylin and eosin staining based histopathological analysis", "type": "organism-based", "details": "in vivo"}, "[18]": {"experiment": "Toxicity in Balb/c mouse assessed as effect on heart at 50 mg/kg by hematoxylin and eosin staining based histopathological analysis", "type": "organism-based", "details": "in vivo"}, "[19]": {"experiment": "Solubility of compound in water incubated for 10 mins", "type": "physicochemical"}, "[20]": {"experiment": "AUC (0 to t) in ICR mouse at 50 mg/kg, po measured upto 96 hrs by HPLC-MS/MS analysis", "type": "ADME, organism-based", "parameters": "dose 50 mg/kg, time < 96 hrs, route po", "details": "in vivo"}, "[21]": {"experiment": "MRT (0 to t) in ICR mouse at 50 mg/kg, po measured upto 96 hrs by HPLC-MS/MS analysis", "type": "ADME, organism-based", "details": "in vivo"}, "[22]": {"experiment": "MRT (0 to infinity) in ICR mouse at 50 mg/kg, po measured upto 96 hrs by HPLC-MS/MS analysis", "type": "ADME, organism-based", "details": "in vivo"}, "[23]": {"experiment": "Volume of distribution at steady state in ICR mouse at 50 mg/kg, po measured upto 96 hrs by HPLC-MS/MS analysis", "type": "ADME, organism-based", "details": "in vivo"}, "[24]": {"experiment": "AUC (0 to t) in ICR mouse at 5 mg/kg, iv measured upto 96 hrs by HPLC-MS/MS analysis", "type": "ADME, organism-based", "parameters": "time < 96 hrs, dose 5 mg/kg, route iv", "details": "in vivo"}, "[25]": {"experiment": "MRT (0 to t) in ICR mouse at 5 mg/kg, iv measured upto 96 hrs by HPLC-MS/MS analysis", "type": "ADME, organism-based", "details": "in vivo"}, "[26]": {"experiment": "Cmax in ICR mouse at 5 mg/kg, iv measured upto 96 hrs by HPLC-MS/MS analysis", "type": "ADME, organism-based", "parameters": "dose 5 mg/kg, time < 96 hrs, route iv", "details": "in vivo"}, "[27]": {"experiment": "Clearance in ICR mouse at 5 mg/kg, iv measured upto 96 hrs by HPLC-MS/MS analysis", "type": "ADME, organism-based", "details": "in vivo"}}, "note": "Calls of active or inactive are those of the source. No cut-off for these calls is given here.", "data": [{"smiles": "CN1CCN(c2cc3c(cc2Nc2nnc(-c4ccc(C(F)(F)F)cc4)s2)nc(-c2ccc(F)cc2)n3C2CC2)CC1", "values": [{"measurement": "Activity", "setting": "DU-145 [1]", "value": 2.1, "unit": "%"}, {"measurement": "IC50", "setting": "[2]", "value": 650, "unit": "nM"}, {"measurement": "inhibition at 10 µM", "setting": "MDA-MB-231 [3]", "value": 90.1, "unit": "%"}, {"measurement": "IC50", "setting": "MDA-MB-231 [4]", "value": 3.26, "unit": "µM"}, {"measurement": "IC50", "setting": "PANC-1", "value": 2430, "unit": "nM"}, {"measurement": "IC50", "setting": "HCT-116", "value": 2190, "unit": "nM"}, {"measurement": "microsomal CLint", "setting": "[5]", "value": 3.68, "unit": "µL/min/mg"}, {"measurement": "inhibition", "setting": "[6]", "value": "inactive"}, {"measurement": "inhibition", "setting": "[7]", "value": "inactive"}, {"measurement": "inhibition", "setting": "[8]", "value": "Active"}, {"measurement": "Activity", "setting": "DU-145 [9]", "value": 34, "unit": "%"}, {"measurement": "Activity", "setting": "MDA-MB-231 [10]", "value": 20.1, "unit": "%"}, {"measurement": "Activity", "setting": "MDA-MB-231 [11]", "value": 79.3, "unit": "%"}, {"measurement": "Activity", "setting": "MDA-MB-231 [12]", "value": "Dose-Dependent Effect"}, {"measurement": "Activity", "setting": "MDA-MB-231 [13]", "value": "Active"}, {"measurement": "inhibition in vivo at 50 mg/kg", "setting": "DU-145 [14]", "value": 65.3, "unit": "%"}, {"measurement": "Activity", "setting": "[15]", "value": "Non-Toxic"}, {"measurement": "Activity", "setting": "[16]", "value": "Non-Toxic"}, {"measurement": "Activity", "setting": "[17]", "value": "Non-Toxic"}, {"measurement": "Activity", "setting": "[18]", "value": "Non-Toxic"}, {"measurement": "solubility at 10 min", "setting": "[19]", "value": 1.04, "unit": "µg/mL"}, {"measurement": "AUC(0-t) at 96 h", "setting": "[20]", "value": 17800, "unit": "ng·h/mL"}, {"measurement": "MRT last at 96 h", "setting": "[21]", "value": 17.1, "unit": "h"}, {"measurement": "MRT inf", "setting": "[22]", "value": 17.3, "unit": "h"}, {"measurement": "Vdss", "setting": "[23]", "value": 40171.72, "unit": "mL/kg"}, {"measurement": "AUC(0-t) at 96 h", "setting": "[24]", "value": 3430, "unit": "ng·h/mL"}, {"measurement": "MRT last at 96 h", "setting": "[25]", "value": 14.9, "unit": "h"}, {"measurement": "Cmax", "setting": "[26]", "value": 667, "unit": "ng/mL"}, {"measurement": "clearance", "setting": "[27]", "value": 24.2, "unit": "mL/min/kg"}]}]}
